Laboratory results reported in patent publication US20250034182A1, “PHOSPHOLIPID COMPOUNDS AND METHODS OF MAKING AND USING THE SAME” (priority 2021, published 2025).

Columns and labels:
Assay type in all cases: cell-based
[1] = test system: Respiratory syncytial virus recombinant with luciferase (RSV-Luc5) in HEp-2 cells; assay: HEp-2 RSV-Luc5 384-well assay (EC50 RSVFLUC Hep2-384 v2, Example V); conditions: human respiratory syncytial virus, HEp-2, 72 h, read-out: RSV Hep-2 FLuc EC50 (v2) (nM) (per Ex. V)
Outline: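 HEp-2 cells (4,000/well) infected with RSV-Luc5 at MOI 0.5 in DMEM/10% FBS with compound, 10-point 1:3 dilutions, 3 days at 37 °C. Replication read by One-Glo luminescence, normalized to remdesivir (0%) and DMSO (100%). EC50 from non-linear regression as concentration giving 50% reduction.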

[2] = test system: Human Rhinovirus 1B (HRV1B) in H1-HeLa cells; assay: H1-HeLa HRV-CTG EC50, HRV1B (Example Z); conditions: Rhinovirus A, 96 h, MOI 0.5, 4 days, Celltiter-Glo, read-out: HRV 1B HELA EC50 (nM) (per Ex. Z)
Source text: H1-Hela cell line (ATCC, Manassas, VA, Cat #CRL-1958) was maintained in Dulbecco's […] (DMEM) (Corning, New York, NY, Cat #15-018CM) supplemented with 10% fetal bovine serum (FBS) (Hyclone, Logan, UT, Cat #SH30071-03), and 1× Penicillin-Streptomycin-L-Glutamine (Coming, New York, NY, Cat #30-009-C1). Cells were passaged 2 times per week to maintain sub-confluent densities and were used for experiments at passage 5-30. The Human Rhinovirus 1B (HRV1B) (ATCC, Manassas, VA, Cat #VR-1645), Human Rhinovirus 14 (HRV14) (ATCC, Manassas, VA, Cat #VR-284), and Human Rhinovirus 16 (HRV16) (ATCC, Manassas, VA, Cat #BR-283) was obtained through ATCC. Viral infection was monitored by determining viability of H1-HeLa cells as described below.
Test molecules are prepared in 100% DMSO in 384-well polypropylene plates (Greiner, Monroe, NC, Cat #784201) with 8 compounds per plate in grouped replicates of 4 at 10 serially diluted concentrations (1:3). The serially diluted compounds were transferred to low dead volume Echo plates (Labcyte, Sunnyvale, CA, Cat #LP-0200).
The test compounds were spotted to 384-well assay plates (Greiner, Monroe, NC, Cat #781091) at 200 nL per well using an Echo acoustic dispenser (Labcyte, Sunnyvale, CA). H1-HeLa cells were harvested and suspended in DMEM (supplemented with 2% FBS and 1× Penicillin-Streptomycin-L-Glutamine) and seeded to the pre-spotted assay plates at 5,000 cells per well in 30 μL. HRV1B, HRV14, and HRV16 was diluted in DMEM (supplemented with 2% FBS and 1× Penicillin-Streptomycin-L-Glutamine) at 97.1 million Infectious Units (IU) per mL, 151 million IU per mL and 221 million IU per mL respectively. 10 μL of virus per well was added to the assay plates containing cells and compounds, for an MOI of 0.5, 1.0, and 0.25 respectively. The assay plates were incubated for 4 days at 37° C. and 5% CO2. At the end of incubation, Celltiter-Glo (Promega, Madison, WI, Cat #G7573) was prepared. The assay plates and Celltiter-Glo reagent were equilibrated to room temperature for at least 15 minutes. 40 μL per well of Celltiter-Glo reagent was added and the plates were incubated at room temperature for 15 minutes before reading the luminescence signal on an EnVision multimode plate reader (Perkin Elmer, Waltham, MA). Rupintrivir was used as positive control and DMSO was used as negative control. Values were normalized to the positive and negative controls (as 0% and 100% replication, respectively) and data was fitted using non-linear regression analysis by Gilead's dose response tool. The EC50 value for each compound was defined as the concentration reducing viral replication by 50%.

[3] = RSV NHBE CC50 384 V2 (per Ex. U); conditions: human
[4] = RSV HEP2-CC50-384-V2 (per Ex. V); conditions: human

SMILES | EC50 [1] [nM] | EC50 [2] [nM] | CC50 at 3 days [3] [µM] | CC50 at 3 days [4] [µM]
CCCCCCCCCCCCCCCCCCC[C@H](COP(=O)(O)OC[C@@]1(C#N)O[C@@H](c2ccc3c(N)ncnn23)[C@H](O)[C@@H]1O)OCc1ccc(-n2cncn2)c(C#N)c1 [Compound 30, ((2R,3S,4R)-5-(4-aminopyrrolo[2,1-f][1,2,4]triazin-7-yl)-2-cyano-3,4-dihydroxytetrahydrofuran-2-yl)methyl ((R)-2-((3-cyano-4-(1H-1,2,4-triazol-1-yl)benzyl)oxy)henicosyl) hydrogen phosphate] | 115 | 7 | 1.72 | 33.1
CCCCCCCCCCCCCCCCCCCC[C@@H](COP(=O)(O)OC[C@@]1(C#N)O[C@@H](c2ccc3c(N)ncnn23)[C@H](O)[C@@H]1O)OCc1cc(F)cc(C#N)c1 [Compound 70, ((2R,3S,4R)-5-(4-aminopyrrolo[2,1-f][1,2,4]triazin-7-yl)-2-cyano-3,4-dihydroxytetrahydrofuran-2-yl)methyl ((S)-2-((3-cyano-5-fluorobenzyl)oxy)docosyl) hydrogen phosphate] | 1770 | 84 | 3.95 | 43.5
CCCCCCCCCCCCCCC[C@H](COP(=O)(O)OC[C@@]1(C#N)O[C@@H](c2ccc3c(N)ncnn23)[C@H](O)[C@@H]1O)OCc1cc(F)cc(C#N)c1 [Compound 80, ((2R,3S,4R,5S)-5-(4-aminopyrrolo[2,1-f][1,2,4]triazin-7-yl)-2-cyano-3,4-dihydroxytetrahydrofuran-2-yl)methyl ((R)-2-((3-cyano-5-fluorobenzyl)oxy)heptadecyl) hydrogen phosphate] | 1050 | 49 | 2.17 | > 50
CCCCCCCCCCCCCCCCCC[C@@H](COP(=O)(O)OC[C@@]1(C#N)O[C@@H](c2ccc3c(N)ncnn23)[C@H](O)[C@@H]1O)OCc1cc(F)cc(C#N)c1 [Compound 37, ((2R,3S,4R)-5-(4-aminopyrrolo[2,1-f][1,2,4]triazin-7-yl)-2-cyano-3,4-dihydroxytetrahydrofuran-2-yl)methyl ((S)-2-((3-cyano-5-fluorobenzyl)oxy)icosyl) hydrogen phosphate] | 1240 | 332 | 3.11 | > 38.1
CCCCCCCCCCCCCCCCCCOC[C@H](COP(=O)(O)OC[C@@]1(C#N)O[C@@H](c2ccc3c(N)ncnn23)[C@H](O)[C@@H]1O)OCc1ccc(C#N)c(Cl)c1 [Compound 7, ((2R,3S,4R,5S)-5-(4-aminopyrrolo[2,1-f][1,2,4]triazin-7-yl)-2-cyano-3,4-dihydroxytetrahydrofuran-2-yl)methyl ((R)-2-((3-chloro-4-cyanobenzyl)oxy)-3-(octadecyloxy)propyl) hydrogen phosphate] | 284 | 38 | 5.96 | > 49.9
CCCCCCCCCCCCCCCCCC[C@H](COP(=O)(O)OC[C@@]1(C#N)O[C@@H](c2ccc3c(N)ncnn23)[C@H](O)[C@@H]1O)OCc1cc(F)cc(C#N)c1 [Compound 84, ((2R,3S,4R,5S)-5-(4-aminopyrrolo[2,1-f][1,2,4]triazin-7-yl)-2-cyano-3,4-dihydroxytetrahydrofuran-2-yl)methyl ((R)-2-((3-cyano-5-fluorobenzyl)oxy)icosyl) hydrogen phosphate] | 325 | – | 24.5 | > 50
CCCCCCCCCCCCCCCCCCOC[C@H](COP(=O)(O)OC[C@@]1(C#N)O[C@@H](c2ccc3c(N)ncnn23)[C@H](O)[C@@H]1O)OCc1cc(F)cc(C#N)c1 [Compound 1, ((2R,3S,4R,5S)-5-(4-aminopyrrolo[2,1-f][1,2,4]triazin-7-yl)-2-cyano-3,4-dihydroxytetrahydrofuran-2-yl)methyl ((R)-2-((3-cyano-5-fluorobenzyl)oxy)-3-(octadecyloxy)propyl) hydrogen phosphate] | 229 | 4 | 2.4 | > 31.2
CCCCCCCCCCCCCCCCC[C@@H](COP(=O)(O)OC[C@@]1(C#N)O[C@@H](c2ccc3c(N)ncnn23)[C@H](O)[C@@H]1O)OCc1cc(F)cc(C#N)c1 [Compound 74, ((2R,3S,4R)-5-(4-aminopyrrolo[2,1-f][1,2,4]triazin-7-yl)-2-cyano-3,4-dihydroxytetrahydrofuran-2-yl)methyl ((S)-2-((3-cyano-5-fluorobenzyl)oxy)nonadecyl) hydrogen phosphate] | 782 | 24 | 1.54 | 28
CCCCCCCCCCCCCCCCCCC[C@H](COP(=O)(O)OC[C@@]1(C#N)O[C@@H](c2ccc3c(N)ncnn23)[C@H](O)[C@@H]1O)Oc1cc(OC)c(C#N)c(OC)c1 [Compound 39, ((2R,3S,4R,5S)-5-(4-aminopyrrolo[2,1-f][1,2,4]triazin-7-yl)-2-cyano-3,4-dihydroxytetrahydrofuran-2-yl)methyl ((R)-2-(4-cyano-3,5-dimethoxyphenoxy)henicosyl) hydrogen phosphate] | 327 | 18 | 6.46 | > 41.4
CCCCCCCCCCCCCCCCCC[C@H](COP(=O)(O)OC[C@@]1(C#N)O[C@@H](c2ccc3c(N)ncnn23)[C@H](O)[C@@H]1O)OCc1cc(Cl)cc(C#N)c1 [Compound 81, ((2R,3S,4R,5S)-5-(4-aminopyrrolo[2,1-f][1,2,4]triazin-7-yl)-2-cyano-3,4-dihydroxytetrahydrofuran-2-yl)methyl ((R)-2-((3-chloro-5-cyanobenzyl)oxy)icosyl) hydrogen phosphate] | 445 | – | 2.48 | 23
CCCCCCCCCCCCCCCCC[C@H](COP(=O)(O)OC[C@@]1(C#N)O[C@@H](c2ccc3c(N)ncnn23)[C@H](O)[C@@H]1O)OCc1cc(Cl)cc(C#N)c1 [Compound 76, ((2R,3S,4R)-5-(4-aminopyrrolo[2,1-f][1,2,4]triazin-7-yl)-2-cyano-3,4-dihydroxytetrahydrofuran-2-yl)methyl ((R)-2-((3-chloro-5-cyanobenzyl)oxy)nonadecyl) hydrogen phosphate] | 382 | – | 3.55 | 33.7
CCCCCCCCCCCCCCCCOC[C@@H](COP(=O)(O)OC[C@@]1(C#N)O[C@@H](c2ccc3c(N)ncnn23)[C@H](O)[C@@H]1O)OCc1cc(F)cc(C#N)c1 [Compound 88, ((2R,3S,4R,5S)-5-(4-aminopyrrolo[2,1-f][1,2,4]triazin-7-yl)-2-cyano-3,4-dihydroxytetrahydrofuran-2-yl)methyl ((S)-2-((3-cyano-5-fluorobenzyl)oxy)-3-(hexadecyloxy)propyl) hydrogen phosphate] | 191 | – | 7.53 | 36.6
CCCCCCCCCCCCCCCCCCC[C@H](COP(=O)(O)OC[C@@]1(C#N)O[C@@H](c2ccc3c(N)ncnn23)[C@H](O)[C@@H]1O)OCc1cc(Cl)cc(C#N)c1 [Compound 82, ((2R,3S,4R,5S)-5-(4-aminopyrrolo[2,1-f][1,2,4]triazin-7-yl)-2-cyano-3,4-dihydroxytetrahydrofuran-2-yl)methyl ((R)-2-((3-chloro-5-cyanobenzyl)oxy)henicosyl) hydrogen phosphate] | 1250 | – | 6.12 | 29
CCCCCCCCCCCCCCCCCCOC[C@H](COP(=O)(O)OC[C@@]1(C#N)O[C@@H](c2ccc3c(N)ncnn23)[C@H](O)[C@@H]1O)OCc1ccc(C#N)nc1 [Compound 19, ((2R,3S,4R,5S)-5-(4-aminopyrrolo[2,1-f][1,2,4]triazin-7-yl)-2-cyano-3,4-dihydroxytetrahydrofuran-2-yl)methyl ((R)-2-((6-cyanopyridin-3-yl)methoxy)-3-(octadecyloxy)propyl) hydrogen phosphate] | 60 | – | – | 46.4
